Among the data in patent US10010614B2, “Derivatives of GLP-1 like peptides, and uses thereof” (Novo Nordisk A/S, priority 2013, dated 2018) are EC50 and IC50 values, retold here.

SMILES strings stand for the structures. Read-outs that look alike come from different tables or passages of the source. Numbered stars: 1 amine (or outer) side, 2 acyl side, 3 side chain; on linkers, the order of the positions; unused ones are H or OH. Square brackets hold non-standard residues; d marks the D form. Side chains are listed from the residue outwards. Peptide text beside a SMILES is read from it. * marks the point of attachment. C20 diacid = O=C(O)CCCCCCCCCCCCCCCCCCC(=O)*; γGlu = O=C(O)[C@H](CCC(=O)[*:2])N[*:1]; εLys = N[C@@H](CCCCN[*:1])C(=O)[*:2]; Trx = NC[C@H]1CC[C@H](C(=O)O)CC1; AEEA = NCCOCCOCC(=O)O; Aib = CC(C)(N)C(=O)O

Usually EC50 stands for the midpoint of the concentration-response curve. Low readings indicate an effect from little substance, high ones a need for much substance. As usually defined, the IC50 is the concentration that inhibits the measured activity by half.

Assay [1] has as its target T1, human GLP-1 receptor (Homo sapiens, UniProt P43220).
T1 construct: expressed in transfected cells; host or cells: membranes prepared from BHK cells (parent line BHKTS13), clone FCW467-12A
Put plainly: In vitro potency, CRE luciferase reporter gene assay in BHK cells expressing the human GLP-1 receptor. Type of assay: cell-based. To be noted: whole cell reporter gene assay, 3 h incubation, no HSA, averages of at least two replicates. As to the method: The purpose of this example is to test the activity, or potency, of the GLP-1 derivatives in vitro. The in vitro potency is the measure of human GLP-1 receptor activation in a whole cell assay.
Semaglutide was included for comparison.
In vitro potency was determined by measuring the response of the human GLP-1 receptor in a reporter gene assay. The assay was performed in a stably transfected BHK cell line that expresses the human GLP-1 receptor and contains the DNA for the cAMP response element (CRE) coupled to a promoter and the gene for firefly luciferase (CRE luciferase). When the human GLP-1 receptor is activated it results in the production of cAMP, which in turn results in the luciferase protein being expressed. When assay incubation is completed the luciferase substrate (luciferin) is added and the enzyme converts luciferin to oxyluciferin to produce bioluminescence. The luminescence is measured as the readout for the assay.
The cells used in this assay (clone FCW467-12A/KZ10-1) were BHK cells with BHKTS13 as a parent cell line. The cells were derived from a clone (FCW467-12A) that expresses the human GLP-1 receptor and were established by further transfection with CRE luciferase to obtain the current clone.
The cells were cultured at 5% CO2 in Cell Culture Medium. They were aliquoted and stored in liquid nitrogen. Before each assay an aliquot is taken up and washed twice in PBS before being suspended at the desired concentration in the assay specific buffer. For 96-well plates the suspension was made to give a final concentration of 5×10^3 cells/well.
The following chemicals were used in the assay: Pluronic F-68 (10%) (Gibco 2404), human serum albumin (HSA) (Sigma A9511), ovalbumin (Sigma A5503), DMEM w/o phenol red (Gibco 11880-028), 1 M Hepes (Gibco 15630), Glutamax 100× (Gibco 35050) and steadylite plus (PerkinElmer 6016757).
Cell Culture Medium consisted of DMEM medium with 10% FBS (Fetal Bovine Serum; Invitrogen 16140-071), 1 mg/ml G418 (Invitrogen 15140-122), 240 nM MTX (methotrexate; Sigma M9929) and 1% pen/strep (penicillin/streptomycin; Invitrogen 15140-122).
Assay Medium consisted of DMEM w/o phenol red, 10 mM Hepes and 1× Glutamax. The Assay Buffer consisted of 2% ovalbumin and 0.2% Pluronic F-68 in Assay Medium.
1) Cell stocks were thawed in a 37° C. water bath.
2) Cells were washed three times in PBS.
3) The cells were counted and adjusted to 5×10^3 cells/50 μl (1×10^5 cells/ml) in Assay Medium. A 50 μl aliquot of cells was transferred to each well in the assay plate.
4) Stocks of the test compounds and reference compounds were diluted to a concentration of 0.2 μM in Assay Buffer. Compounds were diluted 10-fold to give the following concentrations: 2×10^−7 M, […]; 2×10^−9 M, 2×10^−10 M, 2×10^−11 M, 2×10^−12 M, 2×10^−13 M, and 2×10^−14 M. 5) A 50 μl aliquot of compound or blank was transferred from the dilution plate to the assay plate. Compounds were tested at the following final concentrations: 1×10^−7 M, 1×10^−8 M; 1×10^−9 M, 1×10^−10 M, 1×10^−11 M, 1×10^−12 M, 1×10^−13 M, and 1×10^−14 M. 6) The assay plate was incubated for 3 h in a 5% CO2 incubator at 37° C. 7) The assay plate was removed from the incubator and allowed to stand at room temperature for 15 min. 8) A 100 μl aliquot of steadylite plus reagent was added to each well of the assay plate (reagent was light sensitive). 9) Each assay plate was covered with aluminum foil to protect it from light and shaken for 30 min at room temperature. 10) Each assay plate was read in a Packard TopCount NXT instrument. Calculations and Results
The data from the TopCount instrument were transferred to GraphPad Prism software. The software performs a non-linear regression (log(agonist) vs response).
A minimum of two replicates was measured for each sample. The reported values are averages of the replicates.
On the technique in general: Reporter assays use an easily measured gene product as a stand-in for the process of interest.

Assay [2] addresses T1, human GLP-1 receptor. Put plainly: GLP-1 receptor binding, competitive binding assay (125I-GLP-1, SPA) on isolated membranes.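 Further: test compounds added at a range of concentrations to membranes from cells expressing the human GLP-1 receptor, scored by displacement of labelled ligand, read with WGA SPA beads.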
The mark [3] stands for this setting: High HSA IC50 (nM), high serum albumin (2.0% HSA final assay concentration).
Setting [4] is: Low HSA IC50 (nM), low serum albumin (max. 0.001% final assay concentration).

T1 sequence (P43220 24-463): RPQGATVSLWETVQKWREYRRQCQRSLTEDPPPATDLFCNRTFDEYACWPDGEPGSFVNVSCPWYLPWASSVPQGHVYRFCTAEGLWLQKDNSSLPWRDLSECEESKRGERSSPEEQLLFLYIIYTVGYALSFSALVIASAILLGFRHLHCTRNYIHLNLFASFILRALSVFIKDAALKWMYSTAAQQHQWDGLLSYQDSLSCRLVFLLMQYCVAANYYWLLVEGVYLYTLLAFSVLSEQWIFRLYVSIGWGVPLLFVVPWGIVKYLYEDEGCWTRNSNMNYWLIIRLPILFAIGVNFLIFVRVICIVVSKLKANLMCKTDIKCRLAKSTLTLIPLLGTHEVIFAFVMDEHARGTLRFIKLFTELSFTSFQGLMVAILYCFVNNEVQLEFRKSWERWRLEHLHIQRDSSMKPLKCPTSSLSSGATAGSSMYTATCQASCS

Molecule `CC[C@H](C)[C@H](NC(=O)[C@H](Cc1ccccc1)NC(=O)[C@H](CCC(=O)O)NC(=O)[C@H](CCCNC(=N)N)NC(=O)[C@H](C)NC(=O)[C@H](C)NC(=O)[C@H](CCC(N)=O)NC(=O)[C@H](CCC(=O)O)NC(=O)[C@H](CCC(=O)O)NC(=O)[C@H](CC(C)C)NC(=O)[C@H](Cc1ccc(O)cc1)NC(=O)[C@H](CO)NC(=O)[C@H](CO)NC(=O)[C@@H](NC(=O)[C@H](CC(=O)O)NC(=O)[C@H](CO)NC(=O)[C@@H](NC(=O)[C@H](Cc1ccccc1)NC(=O)[C@@H](NC(=O)CNC(=O)[C@H](CCC(=O)O)NC(=O)C(C)(C)NC(=O)[C@@H](N)Cc1c[nH]cn1)[C@@H](C)O)[C@@H](C)O)C(C)C)C(=O)N[C@@H](C)C(=O)N[C@@H](Cc1c[nH]c2ccccc12)C(=O)N[C@@H](CC(C)C)C(=O)N[C@H](C(=O)N[C@@H](CCCNC(=N)N)C(=O)NCC(=O)N[C@@H](CCCCNC(=O)COCCOCCNC(=O)COCCOCCNC(=O)CC[C@H](NC(=O)[C@H]1CC[C@H](CNC(=O)CCCCCCCCCCCCCCCCCCC(=O)O)CC1)C(=O)O)C(=O)NCC(=O)N1CCC[C@H]1C(=O)N[C@@H](C)C(=O)N[C@@H](CO)C(=O)N[C@@H](CCC(=O)O)C(=O)N[C@@H](CCCCNC(=O)COCCOCCNC(=O)COCCOCCNC(=O)CC[C@H](NC(=O)[C@H]1CC[C@H](CNC(=O)CCCCCCCCCCCCCCCCCCC(=O)O)CC1)C(=O)O)C(=O)O)C(C)C` [Example 15] (H-H[Aib]EGTFTSDVSSYLEEQAAREFIAWLVRGK([AEEA-AEEA-γGlu-Trx-C20 diacid])GPASEK([AEEA-AEEA-γGlu-Trx-C20 diacid])-OH) showed an EC50 on human GLP-1 receptor [1] of 0.02 nM. Also, the IC50 at human GLP-1 receptor [2] (setting [3]) worked out at 928 nM; at human GLP-1 receptor [2] (setting [4]) it was 1.6 nM.
At human GLP-1 receptor [1], `CC[C@H](C)[C@H](NC(=O)[C@H](Cc1ccccc1)NC(=O)[C@H](CCC(=O)O)NC(=O)[C@H](CCCNC(=N)N)NC(=O)[C@H](C)NC(=O)[C@H](C)NC(=O)[C@H](CCC(N)=O)NC(=O)[C@H](CCC(=O)O)NC(=O)[C@H](CCC(=O)O)NC(=O)[C@H](CC(C)C)NC(=O)[C@H](Cc1ccc(O)cc1)NC(=O)[C@H](CO)NC(=O)[C@H](CO)NC(=O)[C@@H](NC(=O)[C@H](CC(=O)O)NC(=O)[C@H](CO)NC(=O)[C@@H](NC(=O)[C@H](Cc1ccccc1)NC(=O)[C@@H](NC(=O)CNC(=O)[C@H](CCC(=O)O)NC(=O)C(C)(C)NC(=O)[C@@H](N)Cc1c[nH]cn1)[C@@H](C)O)[C@@H](C)O)C(C)C)C(=O)N[C@@H](C)C(=O)N[C@@H](Cc1c[nH]c2ccccc12)C(=O)N[C@@H](CC(C)C)C(=O)N[C@H](C(=O)N[C@@H](CCCNC(=N)N)C(=O)NCC(=O)N[C@@H](CCCNC(=N)N)C(=O)NCC(=O)N[C@@H](CCCCNC(=O)COCCOCCNC(=O)COCCOCCNC(=O)COCCOCCNC(=O)COCCOCCNC(=O)COCCOCCNC(=O)[C@@H](N)CCCCNC(=O)[C@@H](N)CCCCNC(=O)CCCCCCCCCCCCCCCCCCC(=O)O)C(=O)NCC(=O)NCC(=O)N[C@@H](CO)C(=O)N[C@@H](CCCCNC(=O)COCCOCCNC(=O)COCCOCCNC(=O)COCCOCCNC(=O)COCCOCCNC(=O)COCCOCCNC(=O)[C@@H](N)CCCCNC(=O)[C@@H](N)CCCCNC(=O)CCCCCCCCCCCCCCCCCCC(=O)O)C(=O)O)C(C)C` [Example 27] (H-H[Aib]EGTFTSDVSSYLEEQAAREFIAWLVRGRGK([AEEA-AEEA-AEEA-AEEA-AEEA-εLys-εLys-C20 diacid])GGSK([AEEA-AEEA-AEEA-AEEA-AEEA-εLys-εLys-C20 diacid])-OH; N-terminus and C-terminus assumed) displayed a half-maximal effective concentration (EC50) of 0.0044 nM. In addition, the IC50 was determined as 30 nM on human GLP-1 receptor [2] (high serum albumin (2.0% HSA final assay concentration), read-out: High HSA IC50) and 0.08 nM at human GLP-1 receptor [2] (low serum albumin (max. 0.001% final assay concentration), read-out: Low HSA IC50).
For `CC[C@H](C)[C@H](NC(=O)[C@H](Cc1ccccc1)NC(=O)[C@H](CCC(=O)O)NC(=O)[C@H](CCCNC(=N)N)NC(=O)[C@H](C)NC(=O)[C@H](C)NC(=O)[C@H](CCC(N)=O)NC(=O)[C@H](CCC(=O)O)NC(=O)[C@H](CCC(=O)O)NC(=O)[C@H](CC(C)C)NC(=O)[C@H](Cc1ccc(O)cc1)NC(=O)[C@H](CO)NC(=O)[C@H](CO)NC(=O)[C@@H](NC(=O)[C@H](CC(=O)O)NC(=O)[C@H](CO)NC(=O)[C@@H](NC(=O)[C@H](Cc1ccccc1)NC(=O)[C@@H](NC(=O)CNC(=O)[C@H](CCC(=O)O)NC(=O)C(C)(C)NC(=O)[C@@H](N)Cc1c[nH]cn1)[C@@H](C)O)[C@@H](C)O)C(C)C)C(=O)N[C@@H](C)C(=O)N[C@@H](Cc1c[nH]c2ccccc12)C(=O)N[C@@H](CC(C)C)C(=O)N[C@H](C(=O)N[C@@H](CCCNC(=N)N)C(=O)NCC(=O)N[C@@H](CCCNC(=N)N)C(=O)NCC(=O)N[C@@H](CCCCNC(=O)COCCOCCNC(=O)COCCOCCNC(=O)COCCOCCNC(=O)COCCOCCNC(=O)COCCOCCNC(=O)COCCOCCNC(=O)CC[C@H](NC(=O)[C@H]1CC[C@H](CNC(=O)CCCCCCCCCCCCCCCCCCC(=O)O)CC1)C(=O)O)C(=O)NCC(=O)NCC(=O)N[C@@H](CO)C(=O)N[C@@H](CCCCNC(=O)COCCOCCNC(=O)COCCOCCNC(=O)COCCOCCNC(=O)COCCOCCNC(=O)COCCOCCNC(=O)COCCOCCNC(=O)CC[C@H](NC(=O)[C@H]1CC[C@H](CNC(=O)CCCCCCCCCCCCCCCCCCC(=O)O)CC1)C(=O)O)C(=O)O)C(C)C` [Example 24] (H-H[Aib]EGTFTSDVSSYLEEQAAREFIAWLVRGRGK([AEEA-AEEA-AEEA-AEEA-AEEA-AEEA-γGlu-Trx-C20 diacid])GGSK([AEEA-AEEA-AEEA-AEEA-AEEA-AEEA-γGlu-Trx-C20 diacid])-OH), a half-maximal effect at human GLP-1 receptor [1] (EC50) was put at 0.007 nM. Further, the concentration for half-maximal inhibition (IC50) worked out at 84 nM at human GLP-1 receptor [2] (setting [3]) and 0.67 nM at human GLP-1 receptor [2] (setting [4]).
The molecule `CC[C@H](C)[C@H](NC(=O)[C@H](Cc1ccccc1)NC(=O)[C@H](CCC(=O)O)NC(=O)[C@H](CCCNC(=N)N)NC(=O)[C@H](C)NC(=O)[C@H](C)NC(=O)[C@H](CCC(N)=O)NC(=O)[C@H](CCC(=O)O)NC(=O)[C@H](CCC(=O)O)NC(=O)[C@H](CC(C)C)NC(=O)[C@H](Cc1ccc(O)cc1)NC(=O)[C@H](CO)NC(=O)[C@H](CO)NC(=O)[C@@H](NC(=O)[C@H](CC(=O)O)NC(=O)[C@H](CO)NC(=O)[C@@H](NC(=O)[C@H](Cc1ccccc1)NC(=O)[C@@H](NC(=O)CNC(=O)[C@H](CCC(=O)O)NC(=O)C(C)(C)NC(=O)[C@@H](N)Cc1c[nH]cn1)[C@@H](C)O)[C@@H](C)O)C(C)C)C(=O)N[C@@H](C)C(=O)N[C@@H](Cc1c[nH]c2ccccc12)C(=O)N[C@@H](CC(C)C)C(=O)N[C@H](C(=O)N[C@@H](CCCNC(=N)N)C(=O)NCC(=O)N[C@@H](CCCCNC(=O)COCCOCCNC(=O)COCCOCCNC(=O)CC[C@H](NC(=O)[C@H]1CC[C@H](CNC(=O)CCCCCCCCCCCCCCCCCCC(=O)O)CC1)C(=O)O)C(=O)NCC(=O)N[C@@H](CCC(=O)O)C(=O)NCC(=O)N1CCC[C@H]1C(=O)N[C@@H](C)C(=O)N[C@@H](CCCCNC(=O)COCCOCCNC(=O)COCCOCCNC(=O)CC[C@H](NC(=O)[C@H]1CC[C@H](CNC(=O)CCCCCCCCCCCCCCCCCCC(=O)O)CC1)C(=O)O)C(=O)O)C(C)C` [Example 16] (H-H[Aib]EGTFTSDVSSYLEEQAAREFIAWLVRGK([AEEA-AEEA-γGlu-Trx-C20 diacid])GEGPAK([AEEA-AEEA-γGlu-Trx-C20 diacid])-OH) came in with an EC50 at human GLP-1 receptor [1] of 0.025 nM. Besides, the half-inhibitory concentration (IC50) at human GLP-1 receptor [2] (setting [3]) worked out at 602 nM; on human GLP-1 receptor [2] (setting [4]) it was 1.4 nM.
